Legend:
MMCD = MMCD (Escherichia coli, UniProt P52045); settings: coupled assay, pH 7.2 and 37° C., not optimized; cited from earlier work
[1] = biological target: T1, Escherichia coli methylmalonyl-CoA decarboxylase (YgfG, MMCD) (Escherichia coli, UniProt P52045); test: Inhibition assays of MMCD by 4-9 (HPLC detection, kcat/Km approximation at low substrate); assay type: biochemical; settings: 200 μM methylmalonyl-CoA, 1 nM MMCD, pH 6.5, 25° C.; read-out: Ki (inhibition constant, competitive inhibition)
T1 construct: made in house; host or cells: E. coli BL21 (DE3)
T1 sequence (P52045 whole entry): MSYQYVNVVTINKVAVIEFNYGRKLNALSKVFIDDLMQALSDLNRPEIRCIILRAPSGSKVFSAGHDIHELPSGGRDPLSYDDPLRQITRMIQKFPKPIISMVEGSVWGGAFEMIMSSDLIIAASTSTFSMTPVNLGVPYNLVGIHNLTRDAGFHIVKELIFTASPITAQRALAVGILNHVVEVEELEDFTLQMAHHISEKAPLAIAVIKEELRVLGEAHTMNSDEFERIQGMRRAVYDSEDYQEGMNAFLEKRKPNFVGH
Protocol: Initially we attempted to use isothermal titration calorimetry to determine the binding affinity of our analogs to MMCD. […] Because of this secondary site causes problems with biophysical characterization of binding affinity, we used the kcat/Km approximation at low substrate concentrations for the determination of inhibition constants for our analogs. These assays gave Kis of 7.5±1.1 μM for 4, 3.8±1.6 μM for 5, 7.1±1.7 μM for 6, 10.8±2.3 μM for 7, 20.6±2.7 μM for 8 and 19.8±1.4 μM for 9. The sulfonate isosteres bind tighter than the nitro isosteres in general. Our results have been published and incorporated herein by reference in its entirety (Stunkard, L M, et al., J. Am. Chem. Soc. 2019, 141, 5121-5124).
General procedure for MMCD-His6 catalyzed activity assays. The reactions were performed in a 550 μL reaction mixture which contained 50 mM potassium phosphate buffer (KH2PO4/K2HPO4) at pH 6.5 unless otherwise noted, 10 mM MgCl2, methylmalonyl-CoA and the assay was initiated by the addition of MMCD. Reaction mixtures were incubated at 25° C., 65 μL aliquots taken at times noted below were quenched with 25 μL of 50% TFA v/v, precipitating the protein. Centrifugation at 2000 rpm at 25° C. for 10 minutes was used to pellet the protein and the supernatant was analyzed via the procedure outlined below.
General procedure for determination of methylmalonyl-CoA, propionyl-CoA and CoA concentrations in MMCD catalyzed assays. Substrate and product concentrations were determined using HPLC with detection at A254 over the 250×4.6 mm C18(2) column. The analytes were separated with a 2→25% gradient of 0.1% TFA in water→ACN over 20 min. Peak areas of substrate and products were converted to concentration by summing their areas and dividing each peak by this total to give relative percentages that were converted to concentration by adjusting to the starting concentration of methylmalonyl-CoA. This procedure gave essentially the same values as using a standard curve to generate concentrations for each peak, but enhanced reproducibility due to small differences in recovery from the reaction quenching step outlined above.
Inhibition assays of MMCD by 4-9 were performed according to the general procedure above with 200 μM methylmalonyl-CoA, 4-9 (0 μM, 2 μM, 5 μM, 20 μM, and 50 μM) and the assay was initiated by the addition of 1 nM MMCD. Aliquots were taken at the times 20s, 40s, 60s, 150s, 300s, 600s, 900s, and 1800s.
The initial rates (Vi) of decomposition of methylmalonyl-CoA were determined by fitting the progress curve data to equation (1) which describes a simple exponential decay with rate (k), time (t) and initial substrate concentration ([S]t). The rate of formation of propionyl-CoA or CoA could be fit to equation (2). The derivative at time 0 for Equation (1) divided by enzyme concentration gives the initial rates Vi as shown in equation (3). Using this method rather than linear estimation from the early data points gave similar values. However, it allowed more accurate determination of Vi at early time points. [S]=[S]t·e^−k·t Equation (1) [S]=[S]t·(1−e^k·t) Equation (2) Vi=([S]t·k)/[E] Equation (3)
Inhibition of MMCD by 4-9 was determined by fitting initial rate data to equation (6), which describes competitive inhibition and […] describes the Vi in the presence of inhibitor (Lu, J, et al., Protein Eng. Des. Sel. 2017, 30, 395-399). The values of (Vi·Vis)/(Vii−Vis) and Km/kcat were determined from the initial slopes of Vi or Vii versus substrate concentration rather than from the full assay, see Figures S5 and S9. A minimum of two concentrations were used, 20 or 50 μM of each 4-9 and the experiments were repeated at least twice.

MMCD, sequence (P52045 whole entry): as above

SMILES	Km (MMCD) [µM]	kcat (MMCD) [s⁻¹]	Ki [1] [µM]
C[C@@H](C(=O)O)C(=O)SCCNC(=O)CCNC(=O)[C@H](O)C(C)(C)COP(=O)(O)OP(=O)(O)OC[C@H]1O[C@@H](n2cnc3c(N)ncnc32)[C@H](O)[C@@H]1OP(=O)(O)O [(2S)-methylmalonyl-CoA]	13.6	1.6	
CC(C(=O)SCCNC(=O)CCNC(=O)C(O)C(C)(C)COP(=O)(O)OP(=O)(O)OCC1OC(n2cnc3c(N)ncnc32)C(O)C1OP(=O)(O)O)S(=O)(=O)O (centres unmarked) [compound 4, 2-sulfonatepropionyl-S-CoA]			7.5 ± 1.1
CC(C(=O)OCCNC(=O)CCNC(=O)C(O)C(C)(C)COP(=O)(O)OP(=O)(O)OCC1OC(n2cnc3c(N)ncnc32)C(O)C1OP(=O)(O)O)S(=O)(=O)O (centres unmarked) [compound 5, 2-sulfonatepropionyl-oxa(dethia)CoA]			3.8 ± 1.6
CC(C(=O)NCCNC(=O)CCNC(=O)C(O)C(C)(C)COP(=O)(O)OP(=O)(O)OCC1OC(n2cnc3c(N)ncnc32)C(O)C1OP(=O)(O)O)S(=O)(=O)O (centres unmarked) [compound 6, 2-sulfonatepropionyl-amino(dethia)CoA]			7.1 ± 1.7
CC(C(=O)SCCNC(=O)CCNC(=O)[C@H](O)C(C)(C)COP(=O)(O)OP(=O)(O)OC[C@H]1O[C@@H](n2cnc3c(N)ncnc32)[C@H](O)[C@@H]1OP(=O)(O)O)[N+](=O)[O-] (some centres unmarked) [compound 7, 2-nitropropionyl-S-CoA]			10.8 ± 2.3
CC(C(=O)OCCNC(=O)CCNC(=O)[C@H](O)C(C)(C)COP(=O)(O)OP(=O)(O)OC[C@H]1O[C@@H](n2cnc3c(N)ncnc32)[C@H](O)[C@@H]1OP(=O)(O)O)[N+](=O)[O-] (some centres unmarked) [compound 8, 2-nitropropionyl-oxa(dethia)CoA]			20.6 ± 2.7
CC(C(=O)NCCNC(=O)CCNC(=O)[C@H](O)C(C)(C)COP(=O)(O)OP(=O)(O)OC[C@H]1O[C@@H](n2cnc3c(N)ncnc32)[C@H](O)[C@@H]1OP(=O)(O)O)[N+](=O)[O-] (some centres unmarked) [compound 9, 2-nitropropionyl-amino(dethia)CoA]			19.8 ± 1.4

— patent US11008362B2, “Malonyl-coenzyme A mimics as fatty acid synthase inhibitors and methods of use” (priority 2018, dated 2021)
